Reference: article PMC5218480 (PLoS ONE, 2017)

System: MV-4-11 cells
Assay: Gene expression microarray analysis (Affymetrix PrimeView) and GSEA
Format: cell-based, human
Design: RFU PODN (11730768_x_at) / Fold change /veh PODN (11730768_x_at) / RFU LINC00158 (11744669_a_at) / Fold change /veh LINC00158 (11744669_a_at) / RFU DUSP10 (11751237_a_at) / Fold change /veh DUSP10 (11751237_a_at) / RFU ID3 (11757404_x_at) / Fold change /veh ID3 (11757404_x_at) / RFU PLEKHG5 (11737974_s_at) / Fold change /veh PLEKHG5 (11737974_s_at) / RFU LRRC4B (11730491_at) / Fold change /veh LRRC4B (11730491_at) / RFU GIMAP4 (11747438_a_at) / Fold change /veh GIMAP4 (11747438_a_at) / RFU KRT8 (11758183_x_at) / Fold change /veh KRT8 (11758183_x_at) / RFU CNN1 (11734310_a_at) / Fold change /veh CNN1 (11734310_a_at) / RFU VPS37D (11726825_at) / Fold change /veh VPS37D (11726825_at) / RFU C10orf10 (11716522_x_at) / Fold change /veh C10orf10 (11716522_x_at) / RFU KIR2DL2 /// KIR2DL4 /// KIR2DL5A /// KIR2DL5B /// KIR2DS1 /// KIR2DS2 /// KIR2DS3 /// KIR2DS4 /// KIR3DL3 /// KIR3DL3 /// KIR3DS1 (11738374_at) / Fold change /veh KIR2DL2 /// KIR2DL4 /// KIR2DL5A /// KIR2DL5B /// KIR2DS1 /// KIR2DS2 /// KIR2DS3 /// KIR2DS4 /// KIR3DL3 /// KIR3DL3 /// KIR3DS1 (11738374_at) / RFU C1QL1 (11718748_at) / Fold change /veh C1QL1 (11718748_at) / RFU TMPRSS4 (11747572_a_at) / Fold change /veh TMPRSS4 (11747572_a_at) / RFU HAMP (11756126_x_at) / Fold change /veh HAMP (11756126_x_at) / RFU RNFT2 (11725882_a_at) / Fold change /veh RNFT2 (11725882_a_at) / RFU NR4A2 (11747474_a_at) / Fold change /veh NR4A2 (11747474_a_at) / RFU ABCC12 (11746883_a_at) / Fold change /veh ABCC12 (11746883_a_at) / RFU TMEM136 (11760407_x_at) / Fold change /veh TMEM136 (11760407_x_at) / RFU CLDN22 /// WWC2 (11732394_at) / Fold change /veh CLDN22 /// WWC2 (11732394_at) / RFU HLA-DPB1 (11760878_x_at) / Fold change /veh HLA-DPB1 (11760878_x_at) / RFU SPINT1 (11716480_a_at) / Fold change /veh SPINT1 (11716480_a_at) / RFU GAP43 (11754022_s_at) / Fold change /veh GAP43 (11754022_s_at) / RFU A4GNT (11735810_at) / Fold change /veh A4GNT (11735810_at) / RFU PRB3 (11715151_x_at) / Fold change /veh PRB3 (11715151_x_at) / RFU TUBB4B (11761932_at) / Fold change /veh TUBB4B (11761932_at) / RFU CAPN14 (11732068_a_at) / Fold change /veh CAPN14 (11732068_a_at) / RFU TMCC2 (11721928_a_at) / Fold change /veh TMCC2 (11721928_a_at) / RFU IRGQ (11745062_a_at) / Fold change /veh IRGQ (11745062_a_at) / RFU FAM174B (11720279_a_at) / Fold change /veh FAM174B (11720279_a_at) / RFU TMPRSS4 (11748680_a_at) / Fold change /veh TMPRSS4 (11748680_a_at) / RFU FAM212B (11763350_a_at) / Fold change /veh FAM212B (11763350_a_at) / RFU PLEKHG5 (11743358_a_at) / Fold change /veh PLEKHG5 (11743358_a_at) / RFU ZSCAN30 (11745921_a_at) / Fold change /veh ZSCAN30 (11745921_a_at) / RFU CMKLR1 (11741424_a_at) / Fold change /veh CMKLR1 (11741424_a_at) / RFU LOC101060620 /// MAPK8IP1 (11723275_at) / Fold change /veh LOC101060620 /// MAPK8IP1 (11723275_at) / RFU SPTSSB (11747773_x_at) / Fold change /veh SPTSSB (11747773_x_at) / RFU PRSS12 (11739890_at) / Fold change /veh PRSS12 (11739890_at) / RFU BIN1 (11741810_x_at) / Fold change /veh BIN1 (11741810_x_at) / RFU WNT11 (11732464_a_at) / Fold change /veh WNT11 (11732464_a_at) / RFU C10orf10 (11716521_a_at) / Fold change /veh C10orf10 (11716521_a_at) / RFU C5orf56 (11738089_at) / Fold change /veh C5orf56 (11738089_at) / RFU CYB561 (11721691_x_at) / Fold change /veh CYB561 (11721691_x_at) / RFU ANKRD19P (11752326_a_at) / Fold change /veh ANKRD19P (11752326_a_at) / RFU OR2T12 /// OR2T33 /// OR2T8 (11738714_s_at) / Fold change /veh OR2T12 /// OR2T33 /// OR2T8 (11738714_s_at) / RFU VCAN (11748164_a_at) / Fold change /veh VCAN (11748164_a_at) / RFU JSRP1 (11732532_at) / Fold change /veh JSRP1 (11732532_at) / RFU KRTAP10-11 (11738290_x_at) / Fold change /veh KRTAP10-11 (11738290_x_at) / RFU MYO3A (11730013_a_at) / Fold change /veh MYO3A (11730013_a_at) / RFU EBF3 (11725865_a_at) / Fold change /veh EBF3 (11725865_a_at) / RFU CAMK2N1 (11719241_x_at) / Fold change /veh CAMK2N1 (11719241_x_at) / RFU C5orf56 (11738088_a_at) / Fold change /veh C5orf56 (11738088_a_at) / RFU OLFML3 (11715873_a_at) / Fold change /veh OLFML3 (11715873_a_at) / RFU LOC100653217 /// NTM (11731650_a_at) / Fold change /veh LOC100653217 /// NTM (11731650_a_at) / RFU MAPK11 (11762145_a_at) / Fold change /veh MAPK11 (11762145_a_at) / RFU FIZ1 (11724087_x_at) / Fold change /veh FIZ1 (11724087_x_at) / RFU OASL (11726364_x_at) / Fold change /veh OASL (11726364_x_at) / RFU SOX15 (11748057_x_at) / Fold change /veh SOX15 (11748057_x_at) / RFU CD79A (11719716_a_at) / Fold change /veh CD79A (11719716_a_at) / RFU HIST1H1D (11736915_at) / Fold change /veh HIST1H1D (11736915_at) / RFU CASKIN2 (11723855_a_at) / Fold change /veh CASKIN2 (11723855_a_at) / RFU LOC730098 (11760151_x_at) / Fold change /veh LOC730098 (11760151_x_at) / RFU OR4N2 (11742367_at) / Fold change /veh OR4N2 (11742367_at) / RFU PRRT2 (11749266_a_at) / Fold change /veh PRRT2 (11749266_a_at) / RFU SNX32 (11753110_a_at) / Fold change /veh SNX32 (11753110_a_at) / RFU CDHR5 (11726645_a_at) / Fold change /veh CDHR5 (11726645_a_at) / RFU RCAN1 (11760418_a_at) / Fold change /veh RCAN1 (11760418_a_at) / RFU FAM167A (11723789_a_at) / Fold change /veh FAM167A (11723789_a_at) / RFU FAM26E (11764081_at) / Fold change /veh FAM26E (11764081_at) / RFU ISYNA1 (11749810_s_at) / Fold change /veh ISYNA1 (11749810_s_at) / RFU ACY1 (11761880_at) / Fold change /veh ACY1 (11761880_at) / RFU 11764098_at / Fold change /veh 11764098_at / RFU SAMD14 (11745864_x_at) / Fold change /veh SAMD14 (11745864_x_at) / RFU NPB (11741838_a_at) / Fold change /veh NPB (11741838_a_at) / RFU TMPRSS6 (11731388_a_at) / Fold change /veh TMPRSS6 (11731388_a_at) / RFU KRTAP10-2 (11738614_at) / Fold change /veh KRTAP10-2 (11738614_at) / RFU ARHGAP8 /// PRR5-ARHGAP8 (11727945_x_at) / Fold change /veh ARHGAP8 /// PRR5-ARHGAP8 (11727945_x_at) / RFU KRTAP5-7 /// NADSYN1 (11734609_at) / Fold change /veh KRTAP5-7 /// NADSYN1 (11734609_at) / RFU RASL12 (11751679_a_at) / Fold change /veh RASL12 (11751679_a_at) / RFU CDKN2B (11736163_a_at) / Fold change /veh CDKN2B (11736163_a_at) / RFU PRF1 (11729649_at) / Fold change /veh PRF1 (11729649_at) / RFU, ZNF638 /// ZNF638-IT1 / Fold change vs veh, ZNF638 /// ZNF638-IT1 / RFU, PANK3 / Fold change vs veh, PANK3 / RFU, SH3YL1 / Fold change vs veh, SH3YL1 / RFU, ZEB2 / Fold change vs veh, ZEB2 / RFU, NRIP1 / Fold change vs veh, NRIP1 / RFU, PTTG1IP / Fold change vs veh, PTTG1IP / RFU, CAPN2 / Fold change vs veh, CAPN2 / RFU, MED14 / Fold change vs veh, MED14 / RFU, SNORA58 / Fold change vs veh, SNORA58 / RFU, C1orf63 / Fold change vs veh, C1orf63 / RFU, LRRFIP1 / Fold change vs veh, LRRFIP1 / RFU, NDUFAF7 / Fold change vs veh, NDUFAF7 / RFU, SLC12A2 / Fold change vs veh, SLC12A2 / RFU, IBTK / Fold change vs veh, IBTK / RFU, ESF1 / Fold change vs veh, ESF1 / Fold change vs veh, TMEM50B / RFU, TAOK1 / Fold change vs veh, TAOK1 / RFU, ACBD3 / Fold change vs veh, ACBD3 / RFU, TMA16 / Fold change vs veh, TMA16 / RFU, RWDD3 / Fold change vs veh, RWDD3 / RFU, BCAT1 / Fold change vs veh, BCAT1 / RFU, EDEM3 / Fold change vs veh, EDEM3 / RFU, TMEM33 / Fold change vs veh, TMEM33 / RFU, WDR75 / Fold change vs veh, WDR75 / RFU, AHCTF1 / Fold change vs veh, AHCTF1 / RFU, TFRC / Fold change vs veh, TFRC / RFU, ZDHHC17 / Fold change vs veh, ZDHHC17 / RFU, NOM1 / Fold change vs veh, NOM1 / RFU, ARL8B / Fold change vs veh, ARL8B / RFU, ZBTB11 / Fold change vs veh, ZBTB11 / RFU, TAMM41 / Fold change vs veh, TAMM41 / RFU, KIAA1704 /// LOC100996395 / Fold change vs veh, KIAA1704 /// LOC100996395 / RFU, ING1 / Fold change vs veh, ING1 / RFU, TRMT61B / Fold change vs veh, TRMT61B / RFU, FUBP3 / Fold change vs veh, FUBP3 / RFU, TP53 / Fold change vs veh, TP53 / RFU, TNKS2 / Fold change vs veh, TNKS2 / RFU, ZFP14 / Fold change vs veh, ZFP14 / RFU, ACTR2 / Fold change vs veh, ACTR2 / RFU, PPP3R1 / Fold change vs veh, PPP3R1 / RFU, PIK3R1 / Fold change vs veh, PIK3R1 / RFU, HNRNPA1 / Fold change vs veh, HNRNPA1 / RFU, RNF170 / Fold change vs veh, RNF170 / RFU, ZNF28 / Fold change vs veh, ZNF28 / RFU, RNGTT / Fold change vs veh, RNGTT / RFU, OGT / Fold change vs veh, OGT / RFU, BRD1 / Fold change vs veh, BRD1 / RFU, MARS / Fold change vs veh, MARS / RFU, ZNF655 / Fold change vs veh, ZNF655 / RFU, FAHD1 / Fold change vs veh, FAHD1 / RFU, BDP1 / Fold change vs veh, BDP1 / RFU, LRRCC1 / Fold change vs veh, LRRCC1 / RFU, ARID1A / Fold change vs veh, ARID1A / RFU, ZNF146 / Fold change vs veh, ZNF146 / RFU, ZNF330 / Fold change vs veh, ZNF330 / RFU, GPN3 / Fold change vs veh, GPN3 / RFU, C9orf123 / Fold change vs veh, C9orf123 / RFU, N4BP2L2 / Fold change vs veh, N4BP2L2 / RFU, ARFIP1 / Fold change vs veh, ARFIP1 / RFU, FAM179B / Fold change vs veh, FAM179B / RFU, BCL10 / Fold change vs veh, BCL10 / RFU, UHRF1BP1L / Fold change vs veh, UHRF1BP1L / RFU, BET1 / Fold change vs veh, BET1 / RFU, CNOT2 / Fold change vs veh, CNOT2 / RFU, ZNF268 / Fold change vs veh, ZNF268 / Fold change vs veh, ZNF507 / RFU, DGCR2 / Fold change vs veh, DGCR2 / RFU, WDSUB1 / Fold change vs veh, WDSUB1 / Fold change vs veh, HSP90B1 /// MIR3652 / RFU, ADSS / Fold change vs veh, ADSS / RFU, GK / Fold change vs veh, GK / RFU, ZNF148 / Fold change vs veh, ZNF148 / RFU, TAF9 / Fold change vs veh, TAF9 / RFU, SLC1A5 / Fold change vs veh, SLC1A5 / RFU, SLMO2 / Fold change vs veh, SLMO2 / RFU, ABCC4 / Fold change vs veh, ABCC4 / RFU, LOC101060439 /// RAP1B / Fold change vs veh, LOC101060439 /// RAP1B / RFU, RFX7 / Fold change vs veh, RFX7 / RFU, GTPBP10 / Fold change vs veh, GTPBP10 / RFU, CNEP1R1 / Fold change vs veh, CNEP1R1 / RFU, BIVM-ERCC5 /// ERCC5 / Fold change vs veh, BIVM-ERCC5 /// ERCC5 / RFU, ILF3 / Fold change vs veh, ILF3 / RFU 11762660_at / Fold change /veh 11762660_at / RFU VCAN (11757783_s_at) / Fold change /veh VCAN (11757783_s_at) / RFU DDX43 (11728927_at) / Fold change /veh DDX43 (11728927_at) / RFU KRT8 (11758188_x_at) / Fold change /veh KRT8 (11758188_x_at) / RFU NKD1 (11759106_at) / Fold change /veh NKD1 (11759106_at) / RFU SRD5A1 (11742802_a_at) / Fold change /veh SRD5A1 (11742802_a_at) / RFU TPSAB1 /// TPSB2 (11721975_s_at) / Fold change /veh TPSAB1 /// TPSB2 (11721975_s_at) / RFU GSTM3 (11746129_a_at) / Fold change /veh GSTM3 (11746129_a_at) / RFU IL23R (11737362_x_at) / Fold change /veh IL23R (11737362_x_at) / RFU TMEM51 (11727254_a_at) / Fold change /veh TMEM51 (11727254_a_at) / RFU PIWIL2 (11732686_x_at) / Fold change /veh PIWIL2 (11732686_x_at) / RFU ORM1 (11744905_x_at) / Fold change /veh ORM1 (11744905_x_at) / RFU CCDC152 (11743942_at) / Fold change /veh CCDC152 (11743942_at) / RFU ECM1 (11717891_a_at) / Fold change /veh ECM1 (11717891_a_at) / RFU IL23R (11748794_a_at) / Fold change /veh IL23R (11748794_a_at) / RFU TNFAIP8L3 (11732012_x_at) / Fold change /veh TNFAIP8L3 (11732012_x_at) / RFU MBOAT4 (11741988_at) / Fold change /veh MBOAT4 (11741988_at) / RFU 11764193_at / Fold change /veh 11764193_at / RFU TMEM53 (11763286_at) / Fold change /veh TMEM53 (11763286_at) / RFU MAGEB2 (11727129_at) / Fold change /veh MAGEB2 (11727129_at) / RFU TMEM200A (11744735_a_at) / Fold change /veh TMEM200A (11744735_a_at) / RFU CCDC152 (11751479_a_at) / Fold change /veh CCDC152 (11751479_a_at) / RFU FAM211A (11726209_a_at) / Fold change /veh FAM211A (11726209_a_at) / RFU RGS16 (11746705_a_at) / Fold change /veh RGS16 (11746705_a_at) / RFU VCAN (11755009_s_at) / Fold change /veh VCAN (11755009_s_at) / RFU RHOB (11743442_s_at) / Fold change /veh RHOB (11743442_s_at) / RFU RGS16 (11720943_a_at) / Fold change /veh RGS16 (11720943_a_at) / RFU RGS16 (11720944_at) / Fold change /veh RGS16 (11720944_at) / RFU, VPS4B / Fold change vs veh, VPS4B / RFU, CREB1 / Fold change vs veh, CREB1 / RFU, DNAJC13 / Fold change vs veh, DNAJC13 / RFU, GNAQ / Fold change vs veh, GNAQ / RFU, CDK5R1 / Fold change vs veh, CDK5R1 / RFU, ZRANB3 / Fold change vs veh, ZRANB3 / RFU, CUL4A / Fold change vs veh, CUL4A / RFU, CCNY / Fold change vs veh, CCNY / RFU, UFL1 / Fold change vs veh, UFL1 / RFU, COG3 / Fold change vs veh, COG3 / RFU, DIAPH2 / Fold change vs veh, DIAPH2 / RFU, SKA2 / Fold change vs veh, SKA2 / RFU, AFF3 / Fold change vs veh, AFF3 / RFU, LMF1 / Fold change vs veh, LMF1 / RFU, IPO11 / Fold change vs veh, IPO11 / RFU, DFFB / Fold change vs veh, DFFB / RFU, FOXP1 / Fold change vs veh, FOXP1 / RFU, CARD8 / Fold change vs veh, CARD8 / RFU, STRN3 / Fold change vs veh, STRN3 / RFU, ADK / Fold change vs veh, ADK / RFU, RASSF2 / Fold change vs veh, RASSF2 / RFU, WIPF1 / Fold change vs veh, WIPF1 / RFU, LARP1B / Fold change vs veh, LARP1B / RFU, RASA1 / Fold change vs veh, RASA1 / RFU, RB1 / Fold change vs veh, RB1 / RFU, PPFIA1 / Fold change vs veh, PPFIA1 / RFU, MAT2A / Fold change vs veh, MAT2A / RFU, CCT5 / Fold change vs veh, CCT5 / RFU, WDR92 / Fold change vs veh, WDR92 / RFU, CUX1 / Fold change vs veh, CUX1 / RFU, TTC7A / Fold change vs veh, TTC7A / RFU, TMEM135 / Fold change vs veh, TMEM135 / RFU, DEPTOR / Fold change vs veh, DEPTOR / RFU, CPM / Fold change vs veh, CPM / RFU, DNAJB6 / Fold change vs veh, DNAJB6 / RFU, CACNA2D3 / Fold change vs veh, CACNA2D3 / RFU, DTX4 / Fold change vs veh, DTX4 / RFU, TFCP2 / Fold change vs veh, TFCP2 / RFU, GMCL1 /// GMCL1P1 / Fold change vs veh, GMCL1 /// GMCL1P1 / RFU, AEBP2 / Fold change vs veh, AEBP2 / RFU, SNHG1 /// SNORD22 /// SNORD25 /// SNORD26 /// SNORD27 /// SNORD28 /// SNORD29 /// SNORD31 / Fold change vs veh, SNHG1 /// SNORD22 /// SNORD25 /// SNORD26 /// SNORD27 /// SNORD28 /// SNORD29 /// SNORD31 / Fold change (Aza/veh), C12orf56 (ProbeSet 11735607_a_at) / Fold change (ACY-1035/veh), C12orf56 (ProbeSet 11735607_a_at) / Fold change (Aza/veh), FGFR1OP (ProbeSet 11751329_s_at) / Fold change (ACY-1035/veh), FGFR1OP (ProbeSet 11751329_s_at) / Fold change (Aza/veh), VPS36 (ProbeSet 11739960_a_at) / Fold change (ACY-1035/veh), VPS36 (ProbeSet 11739960_a_at) / RFU SYPL1 (11715823_x_at) / Fold change /veh SYPL1 (11715823_x_at) / RFU IGFBP7 (11715501_s_at) / Fold change /veh IGFBP7 (11715501_s_at) / RFU REEP3 (11722064_at) / Fold change /veh REEP3 (11722064_at) / RFU IGLL1 (11728026_x_at) / Fold change /veh IGLL1 (11728026_x_at): dose or concentration left out as unconfirmed
Settings: MV-4-11 cells, 48 hours

SMILES: Nc1ncn([C@@H]2O[C@H](CO)[C@@H](O)[C@H]2O)c(=O)n1 [azacitidine]
- RFU C1QL1 (11718748_at): 641.97 RFU
